Tested on: rice
Experiment: Low temperature assay on rice seedlings
Type: in vivo
Method: According to a low temperature assay, we measured parameters including plant height, number of leaf, area of leaf, number of tiller, weight of root at low temperature to completely determine effects of the natural brassinolide analogues on the resistance to low temperature of a plant.
The natural brassinolide analogues, BR1, BR2, BR3, BR4, BR5 and BR6, used herein, were those prepared by the method of Example 1. Respectively the analogues were dissolved into 95% (V/V) ethanol solution, and then diluted with pure water to 1 mg/L, 0.1 mg/L, 0.01 mg/L, 0.001 mg/L and 0.0001 mg/L. In addition, pure water was used as a control.
After rice seeds were disinfected by using 5% sodium hypochlorite solution treatment, they were rinsed with distilled water until their pH>7, placed into a petri dish in a dark incubator, and cultured by using water at 30° C.±2° C. for 9 days. Then respectively the nine-day-old etiolated seedlings of rice were immersed in the above solutions containing different concentrations of the natural brassinolide analogues or pure water, and cultured at the temperature of 1° C., 2° C., 3° C., 4° C. and 5° C. for 24 hr. The parameters including plant height, area of leaf and weight of root after 3, 6, 9 and 12 days and number of leaf and number of tiller after 12 days were measured.

Structure (SMILES): CC(C)[C@H](C)[C@@H](O)[C@H](O)[C@@H](C)[C@H]1CCC2C3CC(=O)C4C[C@H](O)CC[C@]4(C)C3CC[C@@]21C (stereo partly shown) [BR4]
- Height (0.01 mg/l, 3 °C, 9 days): 7.5 cm
- Weight of root (0.01 mg/l, 3 °C, 9 days): 2.9 g
- Area of leaf (0.01 mg/l, 3 °C, 12 days): 13.2 cm^2
- Height (0.01 mg/l, 3 °C, 12 days): 7.8 cm
- Number of leaf (0.01 mg/l, 3 °C, 12 days): 3
- Number of tiller (0.01 mg/l, 3 °C, 12 days): 2
- Weight of root (0.01 mg/l, 3 °C, 12 days): 2.9 g
- Area of leaf (0.01 mg/l, 4 °C, 3 days): 10.8 cm^2
- Height (0.01 mg/l, 4 °C, 3 days): 7 cm
- Weight of root (0.01 mg/l, 4 °C, 3 days): 2.5 g
- Area of leaf (0.01 mg/l, 4 °C, 6 days): 12.4 cm^2
- Height (0.01 mg/l, 4 °C, 6 days): 7.4 cm
- Weight of root (0.01 mg/l, 4 °C, 6 days): 2.7 g
- Area of leaf (0.01 mg/l, 4 °C, 9 days): 13 cm^2
- Height (0.01 mg/l, 4 °C, 9 days): 7.7 cm
- Weight of root (0.01 mg/l, 4 °C, 9 days): 2.9 g
- Area of leaf (0.01 mg/l, 4 °C, 12 days): 13.5 cm^2
- Height (0.01 mg/l, 4 °C, 12 days): 7.8 cm
- Number of leaf (0.01 mg/l, 4 °C, 12 days): 3
- Number of tiller (0.01 mg/l, 4 °C, 12 days): 2
- Weight of root (0.01 mg/l, 4 °C, 12 days): 3.0 g
- Area of leaf (0.01 mg/l, 5 °C, 3 days): 10.3 cm^2
- Height (0.01 mg/l, 5 °C, 3 days): 7.2 cm
- Weight of root (0.01 mg/l, 5 °C, 3 days): 2.8 g
- Area of leaf (0.01 mg/l, 5 °C, 6 days): 13.1 cm^2
- Height (0.01 mg/l, 5 °C, 6 days): 7.4 cm
- Weight of root (0.01 mg/l, 5 °C, 6 days): 3.0 g
- Area of leaf (0.01 mg/l, 5 °C, 9 days): 16.4 cm^2
- Height (0.01 mg/l, 5 °C, 9 days): 7.8 cm
- Weight of root (0.01 mg/l, 5 °C, 9 days): 3.4 g
- Area of leaf (0.01 mg/l, 5 °C, 12 days): 17 cm^2
- Height (0.01 mg/l, 5 °C, 12 days): 8.2 cm
- Number of leaf (0.01 mg/l, 5 °C, 12 days): 4
- Number of tiller (0.01 mg/l, 5 °C, 12 days): 3
- Weight of root (0.01 mg/l, 5 °C, 12 days): 3.9 g
- Area of leaf (0.1 mg/l, 1 °C, 3 days): 10 cm^2
- Height (0.1 mg/l, 1 °C, 3 days): 7.1 cm
- Weight of root (0.1 mg/l, 1 °C, 3 days): 2.8 g
- Area of leaf (0.1 mg/l, 1 °C, 6 days): 11 cm^2
- Height (0.1 mg/l, 1 °C, 6 days): 7.2 cm
- Weight of root (0.1 mg/l, 1 °C, 6 days): 2.9 g
- Area of leaf (0.1 mg/l, 1 °C, 9 days): 12.1 cm^2
- Height (0.1 mg/l, 1 °C, 9 days): 7.3 cm
- Weight of root (0.1 mg/l, 1 °C, 9 days): 3.3 g
- Area of leaf (0.1 mg/l, 1 °C, 12 days): 13.1 cm^2
- Height (0.1 mg/l, 1 °C, 12 days): 7.3 cm
- Number of leaf (0.1 mg/l, 1 °C, 12 days): 3
- Number of tiller (0.1 mg/l, 1 °C, 12 days): 3
- Weight of root (0.1 mg/l, 1 °C, 12 days): 3.6 g
- Area of leaf (0.1 mg/l, 2 °C, 3 days): 10.2 cm^2
- Height (0.1 mg/l, 2 °C, 3 days): 7.1 cm
- Weight of root (0.1 mg/l, 2 °C, 3 days): 2.8 g
- Area of leaf (0.1 mg/l, 2 °C, 6 days): 11.2 cm^2
- Height (0.1 mg/l, 2 °C, 6 days): 7.1 cm
- Weight of root (0.1 mg/l, 2 °C, 6 days): 3.1 g
- Area of leaf (0.1 mg/l, 2 °C, 9 days): 12.6 cm^2
- Height (0.1 mg/l, 2 °C, 9 days): 7.3 cm
- Weight of root (0.1 mg/l, 2 °C, 9 days): 3.1 g
- Area of leaf (0.1 mg/l, 2 °C, 12 days): 13.2 cm^2
- Height (0.1 mg/l, 2 °C, 12 days): 7.4 cm
- Number of leaf (0.1 mg/l, 2 °C, 12 days): 3
- Number of tiller (0.1 mg/l, 2 °C, 12 days): 3
- Weight of root (0.1 mg/l, 2 °C, 12 days): 3.2 g
- Area of leaf (0.1 mg/l, 3 °C, 3 days): 10.5 cm^2
- Height (0.1 mg/l, 3 °C, 3 days): 7.3 cm
- Weight of root (0.1 mg/l, 3 °C, 3 days): 2.5 g
- Area of leaf (0.1 mg/l, 3 °C, 6 days): 12 cm^2
- Height (0.1 mg/l, 3 °C, 6 days): 7.4 cm
- Weight of root (0.1 mg/l, 3 °C, 6 days): 2.7 g
- Area of leaf (0.1 mg/l, 3 °C, 9 days): 12.1 cm^2
- Height (0.1 mg/l, 3 °C, 9 days): 7.8 cm
- Weight of root (0.1 mg/l, 3 °C, 9 days): 2.7 g
- Area of leaf (0.1 mg/l, 3 °C, 12 days): 13.4 cm^2
- Height (0.1 mg/l, 3 °C, 12 days): 7.9 cm
- Number of leaf (0.1 mg/l, 3 °C, 12 days): 3
- Number of tiller (0.1 mg/l, 3 °C, 12 days): 2
- Weight of root (0.1 mg/l, 3 °C, 12 days): 2.9 g
- Area of leaf (0.1 mg/l, 4 °C, 3 days): 10.6 cm^2
- Height (0.1 mg/l, 4 °C, 3 days): 7.3 cm
- Weight of root (0.1 mg/l, 4 °C, 3 days): 2.5 g
- Area of leaf (0.1 mg/l, 4 °C, 6 days): 12 cm^2
- Height (0.1 mg/l, 4 °C, 6 days): 7.4 cm
- Weight of root (0.1 mg/l, 4 °C, 6 days): 2.6 g
- Area of leaf (0.1 mg/l, 4 °C, 9 days): 13.2 cm^2
- Height (0.1 mg/l, 4 °C, 9 days): 7.8 cm
- Weight of root (0.1 mg/l, 4 °C, 9 days): 2.9 g
- Area of leaf (0.1 mg/l, 4 °C, 12 days): 13.4 cm^2
- Height (0.1 mg/l, 4 °C, 12 days): 8 cm
- Number of leaf (0.1 mg/l, 4 °C, 12 days): 3
- Number of tiller (0.1 mg/l, 4 °C, 12 days): 2
- Weight of root (0.1 mg/l, 4 °C, 12 days): 3.1 g
- Area of leaf (0.1 mg/l, 5 °C, 3 days): 11 cm^2
- Height (0.1 mg/l, 5 °C, 3 days): 7.4 cm
- Weight of root (0.1 mg/l, 5 °C, 3 days): 2.9 g
- Area of leaf (0.1 mg/l, 5 °C, 6 days): 12.1 cm^2
- Height (0.1 mg/l, 5 °C, 6 days): 7.5 cm
- Weight of root (0.1 mg/l, 5 °C, 6 days): 3.1 g
- Area of leaf (0.1 mg/l, 5 °C, 9 days): 16.2 cm^2
- Height (0.1 mg/l, 5 °C, 9 days): 8 cm
- Weight of root (0.1 mg/l, 5 °C, 9 days): 3.5 g
- Area of leaf (0.1 mg/l, 5 °C, 12 days): 17.8 cm^2
- Height (0.1 mg/l, 5 °C, 12 days): 8.1 cm
- Number of leaf (0.1 mg/l, 5 °C, 12 days): 3
- Number of tiller (0.1 mg/l, 5 °C, 12 days): 2
- Weight of root (0.1 mg/l, 5 °C, 12 days): 4.1 g
- Area of leaf (1 mg/l, 1 °C, 3 days): 10 cm^2
- Height (1 mg/l, 1 °C, 3 days): 6.8 cm
- Weight of root (1 mg/l, 1 °C, 3 days): 2.6 g
- Area of leaf (1 mg/l, 1 °C, 6 days): 11 cm^2
- Height (1 mg/l, 1 °C, 6 days): 7 cm
- Weight of root (1 mg/l, 1 °C, 6 days): 3.1 g
- Area of leaf (1 mg/l, 1 °C, 9 days): 12.4 cm^2
- Height (1 mg/l, 1 °C, 9 days): 7.1 cm
- Weight of root (1 mg/l, 1 °C, 9 days): 3.2 g
- Area of leaf (1 mg/l, 1 °C, 12 days): 13 cm^2
- Height (1 mg/l, 1 °C, 12 days): 7.7 cm
- Number of leaf (1 mg/l, 1 °C, 12 days): 3
- Number of tiller (1 mg/l, 1 °C, 12 days): 3
- Weight of root (1 mg/l, 1 °C, 12 days): 3.7 g
- Area of leaf (1 mg/l, 2 °C, 3 days): 10.1 cm^2
- Height (1 mg/l, 2 °C, 3 days): 7 cm
- Weight of root (1 mg/l, 2 °C, 3 days): 2.55 g
- Area of leaf (1 mg/l, 2 °C, 6 days): 11.7 cm^2
- Height (1 mg/l, 2 °C, 6 days): 7.2 cm
- Weight of root (1 mg/l, 2 °C, 6 days): 3.0 g
- Area of leaf (1 mg/l, 2 °C, 9 days): 12 cm^2
- Height (1 mg/l, 2 °C, 9 days): 7.4 cm
- Weight of root (1 mg/l, 2 °C, 9 days): 3.2 g
- Area of leaf (1 mg/l, 2 °C, 12 days): 13 cm^2
- Height (1 mg/l, 2 °C, 12 days): 8 cm
- Number of leaf (1 mg/l, 2 °C, 12 days): 3
- Number of tiller (1 mg/l, 2 °C, 12 days): 3
- Weight of root (1 mg/l, 2 °C, 12 days): 3.7 g
- Area of leaf (1 mg/l, 3 °C, 3 days): 10.4 cm^2
- Height (1 mg/l, 3 °C, 3 days): 7 cm
- Weight of root (1 mg/l, 3 °C, 3 days): 2.5 g
- Area of leaf (1 mg/l, 3 °C, 6 days): 12 cm^2
- Height (1 mg/l, 3 °C, 6 days): 7.5 cm
- Weight of root (1 mg/l, 3 °C, 6 days): 2.6 g
- Area of leaf (1 mg/l, 3 °C, 9 days): 12 cm^2
- Height (1 mg/l, 3 °C, 9 days): 7.7 cm
- Weight of root (1 mg/l, 3 °C, 9 days): 2.6 g
- Area of leaf (1 mg/l, 3 °C, 12 days): 13.2 cm^2
- Height (1 mg/l, 3 °C, 12 days): 8.1 cm
- Number of leaf (1 mg/l, 3 °C, 12 days): 3
- Number of tiller (1 mg/l, 3 °C, 12 days): 2
- Weight of root (1 mg/l, 3 °C, 12 days): 2.9 g
- Area of leaf (1 mg/l, 4 °C, 3 days): 10.7 cm^2
- Height (1 mg/l, 4 °C, 3 days): 7.3 cm
- Weight of root (1 mg/l, 4 °C, 3 days): 2.5 g
- Area of leaf (1 mg/l, 4 °C, 6 days): 12 cm^2
- Height (1 mg/l, 4 °C, 6 days): 7.5 cm
- Weight of root (1 mg/l, 4 °C, 6 days): 2.7 g
- Area of leaf (1 mg/l, 4 °C, 9 days): 13.2 cm^2
- Height (1 mg/l, 4 °C, 9 days): 7.8 cm
- Weight of root (1 mg/l, 4 °C, 9 days): 3.0 g
- Area of leaf (1 mg/l, 4 °C, 12 days): 14 cm^2
- Height (1 mg/l, 4 °C, 12 days): 8.2 cm
- Number of leaf (1 mg/l, 4 °C, 12 days): 3
- Number of tiller (1 mg/l, 4 °C, 12 days): 2
- Weight of root (1 mg/l, 4 °C, 12 days): 3.2 g
- Area of leaf (1 mg/l, 5 °C, 3 days): 11.1 cm^2
- Height (1 mg/l, 5 °C, 3 days): 7.4 cm
- Weight of root (1 mg/l, 5 °C, 3 days): 2.9 g
- Area of leaf (1 mg/l, 5 °C, 6 days): 13 cm^2
- Height (1 mg/l, 5 °C, 6 days): 7.4 cm
- Weight of root (1 mg/l, 5 °C, 6 days): 3.5 g
- Area of leaf (1 mg/l, 5 °C, 9 days): 18 cm^2
- Height (1 mg/l, 5 °C, 9 days): 8.1 cm
- Weight of root (1 mg/l, 5 °C, 9 days): 3.7 g
- Area of leaf (1 mg/l, 5 °C, 12 days): 20 cm^2
- Height (1 mg/l, 5 °C, 12 days): 8.3 cm
- Number of leaf (1 mg/l, 5 °C, 12 days): 3
- Number of tiller (1 mg/l, 5 °C, 12 days): 2
- Weight of root (1 mg/l, 5 °C, 12 days): 4.5 g
